# Where two headings read alike, the source gives them in different places. Positions of bridges follow the written chain, without caps; N, C: chain ends. Residues, ends and D or L forms follow the SMILES beside them.
# Experiments:
# chicken cecal microbiota [1] = assay: Short-chain fatty acids in batch fermentation supernatant; type: cell-based, broiler chickens; details: 24 h; for Acetate production, in words: 250 times the MIC
# chicken cecal microbiota [2] = assay: Batch fermentation of chicken cecal microbiota, 16S rRNA gene sequencing; type: cell-based, broiler chickens; details: for Impact on genera / microbiota composition, in words: 24 h of culture; for Beta diversity (PCoA of weighted Unifrac), in words: 24 h of fermentation; for Effect on bacterial classes, in words: 12 h of cecal fermentation; for Abundance of Clostridia, in words: 25 vs 250 x MIC
# S. enterica = tested on: S. enterica; parameters: method as in PMID 35543514; details: sensitive strain S. enterica; ref [63]; cited from earlier work
# Text: Table 1 Minimum inhibitory concentration (MIC) of the antimicrobial compounds tested (provided in µg/mL and in µmol/L) and residual activities over time in the cecal fermentation medium, after the introduction of the compounds at 25 (top) or 250 times (bottom) the minimal inhibitory concentration (MIC).
# Listeria ivanovii HPB28 = assay: Residual activity in cecal fermentation medium, agar well diffusion; details: over the 24 h of fermentation; agar diffusion tests
# L. ivanovii = tested on: L. ivanovii; parameters: method as in PMID 35170996; details: sensitive strain L. ivanovii; ref [64]; cited from earlier work
# [3] = tested on: Salmonella enterica subsp. enterica serotype Newport ATCC 6962
# [4] = tested on: Salmonella enterica subsp. enterica serotype Newport ATCC 6962; assay: Residual activity in cecal fermentation medium, agar well diffusion; details: over the 24 h of fermentation; agar diffusion tests
# [5] = tested on: Streptococcus pyogenes RBL4; assay: as above; type: in vitro ADME; details: over the 24 h of fermentation; based on inhibition diameters
# Description: Sterile Viande Levure (VL) medium (16 mL in 50 mL penicillin bottles), supplemented with Tween 80, bile salts, minerals, vitamins, porcine mucin (2.0 g/L), fructo-oligosaccharide (2.5 g/L), and citrus pectin (2.5 g/L), as described previously, and adjusted to pH 6 with 5 M NaOH, was inoculated with […] fecal slurry (10% inoculum, w/v). The antimicrobial compound was added in a volume of 1 mL to obtain 25 or 250 times the minimal inhibitory concentration (Table 1).
# To ensure anaerobic conditions, the bottles were inoculated and sealed in an oxygen-free chamber. They were incubated at 41 °C and 80 rpm on an orbital shaker for up to 24 h. For each experimental treatment, samples were collected at 0, 12, and 24 h and kept at −80 °C until analysis.
# The inhibitory activity of each antimicrobial agent was assessed qualitatively in terms of inhibition zones around agar wells. Briefly, 80 μL of sample was added to wells in pour plates (25 mL) seeded with 250 µL of overnight culture of indicator strain. Following 18 h of incubation at the appropriate temperature, inhibition diameters were measured. Photographs were taken using ChemiDoc XRS (Bio-Rad, Hercules, CA, USA).
# C. perfringens = details: sensitive strain C. perfringens; ref [62]; cited from earlier work
molecule,measurement,setting,value
CO[C@H]1/C=C/O[C@@]2(C)Oc3c(C)c(O)c4c(O)c(c(/C=N/N5CCN(C)CC5)c(O)c4c3C2=O)NC(=O)/C(C)=C\C=C\[C@H](C)[C@H](O)[C@@H](C)[C@@H](O)[C@@H](C)[C@H](OC(C)=O)[C@@H]1C [Rifampicin],"Acetate production, in words",chicken cecal microbiota [1],reached maximal ranges
same,Relative abundance of Bacteroidia,"chicken cecal microbiota [2]; 24 h, concentrations not assigned",0.02
same,"Impact on genera / microbiota composition, in words",chicken cecal microbiota [2],mainly impacted the genera Bacteroides and Parabacteroides
same,"Beta diversity (PCoA of weighted Unifrac), in words",chicken cecal microbiota [2],tended to cluster separately
same,"Genera Enterococcus, in words","chicken cecal microbiota [2]; after 24 h, lowest concentration",reduced
same,MIC (µM),S. enterica,0.47 µM
same,MIC (µg/mL),S. enterica,0.39 µg/mL
"Pediocin PA-1 (M31L) (KYYGNGVTCGKHSCSVDWGKATTCIINNGALAWATGGHQGNHKC; UniProt P29430 19-62, looked up, variant M31L)","Butyrate levels, in words",chicken cecal microbiota [1]; lowest concentration,tended to decrease
same,"Effect on bacterial classes, in words",chicken cecal microbiota [2],dose-dependent effects
same,"Impact on genera / microbiota composition, in words",chicken cecal microbiota [2],moderate effect
same,"Genera Enterococcus, in words","chicken cecal microbiota [2]; after 24 h, highest concentration",reduced
same,"Stability of inhibitory activity in batch fermentation, in words",Listeria ivanovii HPB28,weak activity
Nisin Z,"Acetate production, in words",chicken cecal microbiota [1],reached maximal ranges
same,"Butyrate levels, in words",chicken cecal microbiota [1]; lowest concentration,tended to decrease
same,"Abundance of Clostridia, in words",chicken cecal microbiota [2],dose-dependent decrease
same,"Effect on bacterial classes, in words",chicken cecal microbiota [2],dose-dependent effects
same,"Impact on genera / microbiota composition, in words",chicken cecal microbiota [2],had the most impact on microbiota composition
same,"Beta diversity (PCoA of weighted Unifrac), in words",chicken cecal microbiota [2],tended to cluster separately
same,"Genera Enterococcus, in words",chicken cecal microbiota [2]; after 24 h,reduced
same,"Alpha diversity (Shannon entropy), in words","chicken cecal microbiota [2]; t0, as compared to control",highest diversity
same,MIC (µM),L. ivanovii,0.18 µM
same,MIC (µg/mL),L. ivanovii,1.56 µg/mL
CN(C)[C@@H]1C(O)=C(C(N)=O)C(=O)[C@@]2(O)C(O)=C3C(=O)c4c(O)cccc4[C@@](C)(O)[C@H]3C[C@@H]12 [Tetracycline],Residual Activity 6 h,[3],+++ +++
same,"Impact on genera / microbiota composition, in words",chicken cecal microbiota [2],mainly affected the Gram-negative bacteria Gallibacterium and the Gram-positive bacteria Phascolarctobacterium
same,"Genera Enterococcus, in words",chicken cecal microbiota [2]; after 24 h,reduced
same,"Stability of inhibitory activity in batch fermentation, in words",[4],remained highly active
Bacitracin,"Stability of inhibitory activity in batch fermentation, in words",[5],least stable
same,"Acetate production, in words",chicken cecal microbiota [1],reached maximal ranges
same,"Butyrate levels, in words",chicken cecal microbiota [1]; UHPLC-UV 210 nm,significant decrease
same,"Effect on bacterial classes, in words",chicken cecal microbiota [2],dose-dependent effects
same,"Impact on genera / microbiota composition, in words",chicken cecal microbiota [2],"mainly impacted Streptococcus and Ruminococcus together with different Clostridia (Lachnoclostridium, Erysipelatoclostridium, and Oscillibacter), while promoting the genera Escherichia/Shigella"
same,MIC,C. perfringens,1.50 µg/mL
O=C(O)c1cn(C2CC2)c2cc(N3CCNCC3)c(F)cc2c1=O [Ciprofloxacin],Residual Activity 0 h,[3],+++ +++
same,"Impact on genera / microbiota composition, in words",chicken cecal microbiota [2],"impacted Gram-positive (Clostridia, Enterococcus and Streptococcus) as well as Gram-negative bacteria (Escherichia/Shigella and Gallibacterium)"
same,"Genera Enterococcus, in words",chicken cecal microbiota [2]; after 24 h,reduced
same,MIC (µM),S. enterica,0.60 µM
same,MIC (µg/mL),S. enterica,0.19 µg/mL
CC[C@H](C)[C@H](NC(=O)CNC(=O)[C@@H](NC(=O)[C@H](Cc1ccccc1)NC(=O)[C@H](Cc1ccc(O)cc1)NC(=O)[C@@H]1CCC(=O)NCC(=O)NCC(=O)N[C@@H](C)C(=O)NCC(=O)N[C@@H](Cc2cnc[nH]2)C(=O)N[C@@H](C(C)C)C(=O)N2CCC[C@H]2C(=O)N1)C(C)C)C(=O)NCC(=O)N[C@H](C(=O)N1CCC[C@H]1C(=O)N[C@H](C(=O)N[C@@H](CO)C(=O)N[C@@H](Cc1ccccc1)C(=O)N[C@@H](Cc1ccc(O)cc1)C(=O)NCC(=O)O)[C@@H](C)CC)[C@@H](C)O [Microcin J25] (GGAGHVPEYFVGIGTPISFYG-OH; lactam N-8),"Stability of inhibitory activity in batch fermentation, in words",[3],significant inhibitory activity at 24 h
Colistin,"Butyrate levels, in words",chicken cecal microbiota [1]; highest concentration,tended to decrease
same,Residual Activity 0 h,[3],++ ++
same,Residual Activity 6 h,[3],++ ++
same,Residual Activity 12 h,[3],++ ++
same,Residual Activity 24 h,[3],++ ++
same,"Relative abundance of Escherichia, in words",chicken cecal microbiota [2],dropped
same,"Abundance of Clostridia, in words",chicken cecal microbiota [2],dose-dependent decrease
same,Relative abundance of Gammaproteobacteria,chicken cecal microbiota [2]; 25× MIC,0.03
same,"Effect on bacterial classes, in words",chicken cecal microbiota [2],dose-dependent effects
same,"Impact on genera / microbiota composition, in words",chicken cecal microbiota [2],strongly impaired Escherichia/Shigella together with other Gram-negative bacteria (Gallibacterium and Butyricimonas)
same,"Alpha diversity (Shannon entropy), in words","chicken cecal microbiota [2]; after 12 h, compared to bacitracin, rifampicin, tetracycline, MccE492 and nisin",lower alpha diversity
same,"Alpha diversity (Shannon entropy), in words",chicken cecal microbiota [2]; after 24 h,lowest alpha diversity
same,MIC (µM),S. enterica,0.69 µM
same,MIC (µg/mL),S. enterica,0.80 µg/mL
"Microcin E492 (peptide, UniProt Q9Z4N4 16-99, looked up, 84 aa siderophore peptide produced by Klebsiella pneumoniae, produced heterologously in E. coli MC4100) Microcin E492: GETDPNTQLLNDLGNNMAWGAALGAPGGLGSAALGAAGGALQTVGQGLIDHGPVNVPIPVLIGPSWNGSGSGYNSATSSSGSGS","Impact on genera / microbiota composition, in words",chicken cecal microbiota [2],only minor effects
same,"Genera Enterococcus, in words",chicken cecal microbiota [2]; after 24 h,reduced
same,"Alteration in the relative abundance of the identified taxa, in words",chicken cecal microbiota [2]; class level,neither MccJ25 nor MccE492 induced a statistically significant alteration
same,"Alpha diversity (Shannon entropy), in words","chicken cecal microbiota [2]; t0, as compared to control",highest diversity
same,MIC (µM),S. enterica,0.18 µM
same,MIC (µg/mL),S. enterica,1.56 µg/mL

# — publication PMC11765717, “In Vitro Insights into Bacteriocin-Mediated Modulation of Chicken Cecal Microbiota” (International Journal of Molecular Sciences, 2025)
